Tests used:
[1] = UV/visible absorption in 50 mM phosphate buffer pH 7.4 containing 5 mM MgCl2; type: physicochemical; details: 50 mM phosphate buffer pH 7.4, 5 mM MgCl2
Experimental: (§1) When dissolved in 50 mM phosphate buffer at pH 7.4 containing 5 mM magnesium chloride (MgCl2) compound (23)+(24) (mixture) had λmax of 454 nm (ε =22,000) and 344 nm (ε =14,000).

β-galactosidase = experiment: enzymatic cleavage of substrate to (20) by β-galactosidase; type: biochemical; details: in the presence of β-galactosidase
Experimental: as §1

[2] = protonated vs deprotonated form; cited from earlier work

| Compound | ε at λmax 344 nm ([1]; 344 nm) | ε at λmax 454 nm ([1]; 454 nm) | λmax ([1]; long-wavelength maximum) [nm] | λmax ([1]; second maximum) [nm] | Km (β-galactosidase) [µM] | rate (Kcat) of cleavage to (20) (β-galactosidase) | shift in absorption (λmax) between the protonated form and the deprotonated form [2] [nm] |
| --- | --- | --- | --- | --- | --- | --- | --- |
| 8-β-D-Galactopyranosyloxy-11-methyl-11H-dibenz[b,e][1,4]oxazepin-1-one(23) and 2-β-D-galactopyranosyloxy-11-methyl-11H-dibenz[b,e][-1,4]oxazepin-8-one (24) [(23)+(24)] | 14,000 | 22,000 | 454 | 344 | 75 | 1.32×10^4 mol. min^-1 /mol. active site | – |
| CC1Oc2cc(O)ccc2N=C2C=CC(=O)C=C21 (stereo not shown) [(20)] | – | – | – | – | – | – | 122 |
